According to ChEMBL document CHEMBL1141452, “Advances in development of dopaminergic aporphinoids” (J Med Chem, 2007):

Legend:
D(1A) dopamine receptor = D(1A) dopamine receptor (Rattus norvegicus, UniProt P18901); experiment: Displacement of [3H]SCH-23390 from rat dopamine D1 receptor
D(2) dopamine receptor = D(2) dopamine receptor (Rattus norvegicus, UniProt P61169); experiment: Displacement of [3H]raclopride from rat dopamine D2 receptor
Sequence of D(2) dopamine receptor (P61169 whole entry): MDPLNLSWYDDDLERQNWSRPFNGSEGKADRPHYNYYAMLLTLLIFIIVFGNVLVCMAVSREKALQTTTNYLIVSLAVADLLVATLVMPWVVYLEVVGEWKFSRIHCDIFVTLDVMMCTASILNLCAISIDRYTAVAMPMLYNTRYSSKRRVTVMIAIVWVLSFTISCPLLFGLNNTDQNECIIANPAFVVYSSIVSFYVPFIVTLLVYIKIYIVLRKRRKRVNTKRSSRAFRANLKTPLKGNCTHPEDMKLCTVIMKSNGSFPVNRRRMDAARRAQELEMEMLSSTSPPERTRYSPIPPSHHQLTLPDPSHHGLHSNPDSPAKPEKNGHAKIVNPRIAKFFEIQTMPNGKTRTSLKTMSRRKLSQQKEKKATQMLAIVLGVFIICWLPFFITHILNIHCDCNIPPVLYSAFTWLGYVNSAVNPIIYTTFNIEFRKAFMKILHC

Sequence of D(1A) dopamine receptor (P18901 whole entry): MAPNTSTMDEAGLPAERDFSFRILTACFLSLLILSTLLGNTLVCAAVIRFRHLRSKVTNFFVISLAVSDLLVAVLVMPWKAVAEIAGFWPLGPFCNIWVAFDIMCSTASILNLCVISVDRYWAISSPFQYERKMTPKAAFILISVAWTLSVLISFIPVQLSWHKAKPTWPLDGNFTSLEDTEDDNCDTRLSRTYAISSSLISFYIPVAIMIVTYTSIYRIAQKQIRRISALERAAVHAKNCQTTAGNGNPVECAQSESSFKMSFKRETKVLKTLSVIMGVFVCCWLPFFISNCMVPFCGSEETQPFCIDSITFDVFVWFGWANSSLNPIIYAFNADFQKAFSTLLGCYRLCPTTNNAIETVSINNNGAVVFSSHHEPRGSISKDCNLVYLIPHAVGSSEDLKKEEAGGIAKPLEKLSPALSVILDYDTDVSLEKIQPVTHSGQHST

Ki (D(1A) dopamine receptor) | Ki (D(2) dopamine receptor) | Compound | IC50 (D(2) dopamine receptor)
– | > 10 µM | CCN1CCc2cccc3c2C1Cc1cc(O)ccc1O3 (stereo not given) | –
> 10 µM | > 10 µM | CCCN1CCc2cc(O)cc3c2C1Cc1ccccc1O3 (stereo not given) | –
3 µM | 0.27 µM | CN1CCc2cc(O)cc3c2C1Cc1ccccc1O3 (stereo not given) | –
> 20 µM | 15 µM | CCN1CCc2cc(O)cc3c2C1Cc1ccccc1C3 (stereo not given) | –
3.7 µM | 20 µM | Oc1cc2c3c(c1)Cc1ccccc1CC3NCC2 (stereo not given) | –
6.6 µM | 9.7 µM | CCN1CCc2cc(OC)cc3c2C1Cc1ccccc1C3 (stereo not given) | –
11.6 µM | 14 µM | CCCN1CCc2cc(OC)cc3c2C1Cc1ccccc1C3 (stereo not given) | –
6.1 µM | 15 µM | CN1CCc2cc(O)c(O)c3c2C1Cc1ccccc1C3 (stereo not given) | –
8.3 µM | 16 µM | CCN1CCc2cc(O)c(O)c3c2C1Cc1ccccc1C3 (stereo not given) | –
10.8 µM | 8 µM | Oc1cc2c3c(c1O)Cc1ccccc1CC3NCC2 (stereo not given) | –
> 60 µM | 4.9 µM | COc1cc2c3c(c1OC)Cc1ccccc1CC3N(Cc1ccccc1)CC2 (stereo not given) | –
4.3 µM | 13 µM | COc1cc2c3c(c1OC)Cc1ccccc1CC3NCC2 (stereo not given) | –
> 10 µM | 0.18 µM | CCCCCCCCCCCCCCCCCCCCCC(=O)Oc1cccc2c1-c1cccc3c1[C@@H](C2)N(CCC)CC3 | –
– | – | CCCN1CCc2cc(O)cc3c2[C@H]1Cc1ccc(O)c(O)c1-3 | 0.07 nM
> 10 µM | > 10 µM | CCCN1CCc2cccc3c2C1Cc1cc(O)ccc1O3 (stereo not given) | –
30 µM | 40 µM | CCCN1CCc2cc(O)cc3c2C1Cc1ccccc1C3 (stereo not given) | –
8.6 µM | 8.2 µM | COc1cc2c3c(c1)Cc1ccccc1CC3N(C)CC2 (stereo not given) | –
6.3 µM | 19 µM | COc1cc2c3c(c1)Cc1ccccc1CC3NCC2 (stereo not given) | –
22.3 µM | 6.7 µM | CCCN1CCc2cc(O)c(O)c3c2C1Cc1ccccc1C3 (stereo not given) | –
0.17 µM | 0.0038 µM | CN1CCc2cc(-c3ccc(O)cc3)cc3c2[C@H]1Cc1cccc(O)c1-3 | –
7.2 µM | > 20 µM | COc1cc2c3c(c1OC)Cc1ccccc1CC3N(C)CC2 (stereo not given) | –
> 70 µM | 14 µM | CCCN1CCc2cc(OC)c(OC)c3c2C1Cc1ccccc1C3 (stereo not given) | –
6.4 µM | 8.9 µM | CN1CCc2cc(O)cc3c2C1Cc1ccccc1C3 (stereo not given) | –
– | – | CCCN1CCc2cc(OC)cc3c2[C@H]1Cc1ccc(O)c(O)c1-3 | 10.2 nM

Compound | Ki (D(1A) dopamine receptor) | Ki (D(2) dopamine receptor) | IC50 (D(2) dopamine receptor)
Cc1ccc2c(c1O)-c1cccc3c1[C@@H](C2)NCC3 | > 20 µM | > 10 µM | –
CCc1cccc2c1-c1cccc3c1[C@@H](C2)N(C)CC3 | – | 0.079 µM | –
CCCN1CCc2cccc3c2[C@H]1Cc1ccc(C)c(O)c1-3 | 2 µM | 0.25 µM | –
CCCN1CCc2cccc3c2[C@H]1Cc1cccc(OC(C)=O)c1-3 | > 10 µM | – | –
COc1cc2c(cc1O)C[C@H]1c3c(c(I)c(O)c(OC)c3-2)CCN1C | 0.002 µM | 0.068 µM | –
CCCN1CCc2cc(SC)cc3c2[C@H]1Cc1ccc(O)c(O)c1-3 | – | 0.0037 µM | –
CCCN1CCc2cc(F)cc3c2[C@H]1Cc1cccc(OC=O)c1-3 | 0.8 µM | 0.039 µM | –
Oc1cccc2c1-c1cccc3c1[C@@H](C2)NCC3 | – | 1 µM | –
COc1cc2c(cc1OC)-c1c(OC)c(OC)c(I)c3c1[C@H](C2)N(C)CC3 | 2.11 µM | 4.5 µM | –
COc1cc2c(cc1OC)-c1c(OC)c(O)c(Br)c3c1[C@H](C2)N(C)CC3 | 0.015 µM | 0.61 µM | –
COc1cc2c(cc1OC)-c1c(OC)c(O)c(I)c3c1[C@H](C2)N(C)CC3 | 0.006 µM | 0.83 µM | –
COc1cc2c(cc1OC)-c1c(OC)c(OC)c(Br)c3c1[C@H](C2)N(C)CC3 | 0.52 µM | 2.4 µM | –
CCCCC(=O)Oc1cccc2c1-c1cccc3c1[C@@H](C2)N(CCC)CC3 | > 20 µM | 0.034 µM | –
Cc1ccc2c(c1O)-c1cccc3c1[C@@H](C2)N(C)CC3 | – | 1.07 µM | –
COc1cc2c(cc1O)C[C@H]1c3c(c(Br)c(O)c(OC)c3-2)CCN1C [3-BROMOBOLDINE] | 0.049 µM | 0.74 µM | –
